Data from PubChem BioAssay AID330 (DTP/NCI, 2004).
Several values for one entry are separate records, joined by “and”; a condition that tells them apart may be missing. Identical values can stand only once. Inconclusive results and toxic doses are left out. The calls were made as follows: active = survival T/C of 150% or more; inactive = T/C below 125% in these data.

System: P388 leukemia ip, CD2F1 mice, survival T/C
Test: NCI In Vivo Anticancer Drug Screen. Data for tumor model P388 Leukemia (intraperitoneal) in CD2F1 (CDF1) mice
Details: endpoint: median survival time, higher = longer survival
In short: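 Mice carrying the transplanted tumor received test compound or vehicle. Survival was recorded in each group, and the value is the treated-group measurement divided by that of the vehicle-treated control group.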

[1] = dose: 50.0 mg/kg/injection, schedule: Q01DX009 (ip), vehicle: saline with Tween-80
[2] = dose: 100.0 mg/kg/injection, schedule: Q01DX009 (ip), vehicle: saline with Tween-80
[3] = dose: 200.0 mg/kg/injection, schedule: Q01DX009 (ip), vehicle: saline with Tween-80
[4] = dose: 100.0 mg/kg/injection, schedule: Q04DX003 (ip), vehicle: saline with Tween-80
[5] = dose: 100.0 mg/kg/injection, schedule: Q01DX001 (ip), vehicle: Klucel (hydroxypropylcellulose) (HPC)
[6] = dose: 200.0 mg/kg/injection, schedule: Q01DX001 (ip), vehicle: Klucel (hydroxypropylcellulose) (HPC)
[7] = dose: 400.0 mg/kg/injection, schedule: Q01DX001 (ip), vehicle: Klucel (hydroxypropylcellulose) (HPC)
[8] = dose: 50.0 mg/kg/injection, schedule: Q01DX005 (ip), vehicle: Klucel (hydroxypropylcellulose) (HPC)
[9] = dose: 100.0 mg/kg/injection, schedule: Q01DX005 (ip), vehicle: Klucel (hydroxypropylcellulose) (HPC)
[10] = dose: 200.0 mg/kg/injection, schedule: Q01DX005 (ip), vehicle: Klucel (hydroxypropylcellulose) (HPC)

Measured: T/C

COC(=O)c1cc(=O)n(-c2ccccc2OC)c(SC)n1
inactive: dose: 25.0 mg/kg/injection, schedule: Q04DX002 (ip), vehicle: Klucel (hydroxypropylcellulose) (HPC) 110 % of control | dose: 50.0 mg/kg/injection, schedule: Q04DX002 (ip), vehicle: Klucel (hydroxypropylcellulose) (HPC) 100 % of control | dose: 100.0 mg/kg/injection, schedule: Q04DX002 (ip), vehicle: Klucel (hydroxypropylcellulose) (HPC) 103 % of control

O=c1nc(-c2ccccc2)c(-c2ccccc2)n[nH]1
inactive: [1] 100 % of control | [2] 100 % of control | [3] 100 % of control

Brc1ccc(-c2cnc3nc4[nH]c5ccccc5c4nn23)cc1
inactive: dose: 12.5 mg/kg/injection, schedule: Q01DX005 (ip), vehicle: saline with Tween-80 101 % of control | dose: 25.0 mg/kg/injection, schedule: Q01DX005 (ip), vehicle: saline with Tween-80 93 % of control | dose: 50.0 mg/kg/injection, schedule: Q01DX005 (ip), vehicle: saline with Tween-80 89 % of control and 91 % of control

CCCCCCN=C(N)N/N=C(\C)c1ccc2c(c1)Cc1ccccc1-2
inactive: dose: 12.5 mg/kg/injection, schedule: Q04DX002 (ip), vehicle: saline with Tween-80 107 % of control | dose: 25.0 mg/kg/injection, schedule: Q04DX002 (ip), vehicle: saline with Tween-80 100 % of control | dose: 50.0 mg/kg/injection, schedule: Q04DX002 (ip), vehicle: saline with Tween-80 92 % of control | dose: 100.0 mg/kg/injection, schedule: Q04DX002 (ip), vehicle: saline with Tween-80 116 % of control

CCCCCCCCCCCCCCCC[N+](C)(C)C
inactive: dose: 1.56 mg/kg/injection, schedule: Q01DX009 (ip), vehicle: saline 99 % of control and 115 % of control and 120 % of control | dose: 1.56 mg/kg/injection, schedule: Q04DX003 (ip), vehicle: saline with Tween-80 100 % of control | dose: 2.0 mg/kg/injection, schedule: Q01DX009 (ip), vehicle: saline 113 % of control | dose: 3.12 mg/kg/injection, schedule: Q01DX009 (ip), vehicle: saline 118 % of control and 121 % of control | dose: 3.13 mg/kg/injection, schedule: Q01DX009 (ip), vehicle: saline 109 % of control | dose: 3.13 mg/kg/injection, schedule: Q04DX003 (ip), vehicle: saline with Tween-80 104 % of control | dose: 4.7 mg/kg/injection, schedule: Q01DX009 (ip), vehicle: saline 86 % of control | dose: 6.25 mg/kg/injection, schedule: Q04DX003 (ip), vehicle: saline with Tween-80 100 % of control and 112 % of control

CC(=O)C1=C(C)NC(C)=C(C(C)=O)C1c1cccc([N+](=O)[O-])c1
inactive: dose: 25.0 mg/kg/injection, schedule: Q04DX003 (ip), vehicle: saline with Tween-80 100 % of control | dose: 50.0 mg/kg/injection, schedule: Q04DX003 (ip), vehicle: saline with Tween-80 100 % of control | [4] 100 % of control and 91 % of control

O=C1OCCOCCSCCOCCOC(=O)c2cncc1c2
inactive: [5] 104 % of control | [6] 104 % of control | [7] 101 % of control

N#CCN=NNc1ccc([N+](=O)[O-])cc1
inactive: [5] 115 % of control | [6] 107 % of control | [7] 116 % of control

Cc1ccc2nc3sc(=O)sc3nc2c1
inactive: dose: 60.0 mg/kg/injection, schedule: Q01DX005 (ip), vehicle: Klucel (hydroxypropylcellulose) (HPC) 101 % of control | dose: 120.0 mg/kg/injection, schedule: Q01DX005 (ip), vehicle: Klucel (hydroxypropylcellulose) (HPC) 107 % of control

CNC(=O)C1OCCOCCOC(C(=O)NC)C(C(=O)NC)OCCOCCOC1C(=O)NC (configuration not stated)
inactive: [8] 96 % of control | [9] 98 % of control | [10] 97 % of control

NC(C(=O)O)C(CC(=O)O)c1ccccc1 (configuration not stated)
inactive: [1] 88 % of control | dose: 50.0 mg/kg/injection, schedule: Q01DX009 (ip), vehicle: suspension in saline 96 % of control | [2] 94 % of control | dose: 100.0 mg/kg/injection, schedule: Q01DX009 (ip), vehicle: suspension in saline 89 % of control | [4] 100 % of control | [3] 95 % of control | dose: 200.0 mg/kg/injection, schedule: Q01DX009 (ip), vehicle: suspension in saline 88 % of control | dose: 200.0 mg/kg/injection, schedule: Q04DX003 (ip), vehicle: saline with Tween-80 108 % of control | dose: 400.0 mg/kg/injection, schedule: Q04DX003 (ip), vehicle: saline with Tween-80 97 % of control

Cc1cc(=O)[nH]c2cc(O)c(C(=O)O)cc12
inactive: [8] 93 % of control | [9] 93 % of control | [10] 88 % of control
